Data on 2 molecules can be found in US20110269811A1, “INHIBITORS OF SEMICARBAZIDE-SENSITIVE AMINE OXIDASE (SSAO) AND VAP-1 MEDIATED ADHESION USEFUL FOR TREATMENT AND PREVENTION OF DISEASES” (priority 2006, published 2011).

The target in one experiment is T1, D3 (h) (Homo sapiens, UniProt P35462).
T1 construct: expressed in transfected cells; host or cells: CHO cells
The experiment can be described thus: Receptor binding screen, [^3H]spiperone. To be noted: 10 uM Concentration of Compound I-1-Z; read-out: Mean Value, percent inhibition of control specific binding: D3 (h).

In a further experiment the target is T2, CCR1 (h) (Homo sapiens, UniProt P32246).
T2 construct: expressed in transfected cells; host or cells: HEK-293 cells
The experiment can be described thus: Receptor binding screen, [^125I]MIP-1α. Conditions: 10 uM Concentration of Compound I-1-Z; read-out: Mean Value, percent inhibition of control specific binding: CCR1 (h).

The next experiment has as its target T3, MC4 (h) (Homo sapiens, UniProt P32245).
T3 construct: expressed in transfected cells; host or cells: CHO cells
In words: Receptor binding screen, [^125I]NDP-α-MSH. To be noted: 10 uM Concentration of Compound I-1-Z; read-out: Mean Value, percent inhibition of control specific binding: MC4 (h).

For another experiment, the target named is T4, NT1 (h) (NTS1) (Homo sapiens, UniProt P30989).
T4 construct: expressed in transfected cells; host or cells: CHO cells
In words: Receptor binding screen, [^125I]Tyr^3-neurotensin. To be noted: 10 uM Concentration of Compound I-1-Z; read-out: Mean Value, percent inhibition of control specific binding: NT1 (h) (NTS1).

The target of another experiment is T5, M1 (h) (Homo sapiens, UniProt P11229).
T5 construct: expressed in transfected cells; host or cells: CHO cells
In words: Receptor binding screen, [^3H]pirenzepine. To be noted: 10 uM Concentration of Compound I-1-Z; read-out: Mean Value, percent inhibition of control specific binding: M1 (h). As for the experimental part: For Table 4 below, the specific ligand binding to the receptors is defined as the difference between the total binding and the nonspecific binding determined in the presence of an excess of unlabelled ligand. The results are expressed as a percent inhibition of control specific binding obtained in the presence of Compound I-1-Z. The IC50 values (concentration causing a half-maximal inhibition of control specific binding) and Hill coefficients (nH) were determined by non-linear regression analysis of the competition curves using Hill equation curve fitting. The inhibition constants (Ki) were calculated from the Cheng Prusoff equation (Ki=IC50/(1+(L/KD)), where L=concentration of radioligand in the assay, and KD=affinity of the radioligand for the receptor). In each experiment, the respective reference compound was tested concurrently with Compound I-1-Z in order to assess the assay suitability.

In experiment [1] the test system is Non-Peptide Receptors, Peptide Receptors, Ion Channels. The experiment can be described thus: Screening for receptors affected by SSAO inhibitor (specific ligand binding). To be noted: 10 μM concentration; receptor families listed. As for the experimental part:
A screening procedure was employed to determine whether compound I-1-Z affects specific ligand binding to various receptors. Ligand binding to the following receptors was not affected by a 10 μM concentration of compound I-1-Z:
Non-Peptide Receptors: Adenosine, Adrenergic, Benzodiazepine, Cannabinoid, Dopamine, GABA, Glutamate, Histamine, Melatonin, Muscarinic, Prostanoid, Purinergic, Serotonin, Sigma;
Peptide Receptors: Angiotensin II, Bombesin, Bradykinin, Calcitonin-related peptide, Chemokine, Cholecystokinin, Cytokine, Endothein, Galanin, Growth factor, Melanocortin, Neurokinin, Neuropeptide Y, Neurotensin, Opioid, Somatostatin, VIP, Vasopressin;
Ion Channels: Calcium, Potassium, Sodium. […]
For Table 4 below, the specific ligand binding to the receptors is defined as the difference between the total binding and the nonspecific binding determined in the presence of an excess of unlabelled ligand. The results are expressed as a percent inhibition of control specific binding obtained in the presence of Compound I-1-Z. The IC50 values (concentration causing a half-maximal inhibition of control specific binding) and Hill coefficients (nH) were determined by non-linear regression analysis of the competition curves using Hill equation curve fitting. […]

For the next experiment, the target named is T6, 5-HT5A (h) (Homo sapiens, UniProt P47898).
T6 construct: expressed in transfected cells; host or cells: CHO cells
In words: Receptor binding screen, [^3H]LSD. Conditions: 10 uM Concentration of Compound I-1-Z; read-out: Mean Value, percent inhibition of control specific binding: 5-HT5A (h).

The target in a further experiment is T7, M4 (h) (Homo sapiens, UniProt P08173).
T7 construct: expressed in transfected cells; host or cells: CHO cells
The experiment can be described thus: Receptor binding screen, [^3H]4-DAMP. Conditions: 10 uM Concentration of Compound I-1-Z; read-out: Mean Value, percent inhibition of control specific binding: M4 (h).

Another experiment has as its target T8, B2 (h) (Homo sapiens, UniProt P30411).
T8 construct: expressed in transfected cells; host or cells: CHO cells
The experiment can be described thus: Receptor binding screen, [^3H]bradykinin. Conditions: 10 uM Concentration of Compound I-1-Z; read-out: Mean Value, percent inhibition of control specific binding: B2 (h).

Another experiment concerns the target T9, M3 (h) (Homo sapiens, UniProt P20309).
T9 construct: expressed in transfected cells; host or cells: CHO cells
The experiment can be described thus: Receptor binding screen, [^3H]4-DAMP. To be noted: 10 uM Concentration of Compound I-1-Z; read-out: Mean Value, percent inhibition of control specific binding: M3 (h).

Experiment [2] deals with Ca^2+ channel (L, verapamil site) (phenylalkylamines). The experiment can be described thus: Receptor binding screen, [^3H](−)D 888. The arrangement: species or system rat. Conditions: 10 uM Concentration of Compound I-1-Z.
The test system of experiment [3] is experimental autoimmune encephalomyelitis. In words: Experimental autoimmune encephalomyelitis (EAE), MOG peptide 35-55. To be noted: 40 mg/kg/dose once daily i.p. for 30 consecutive days. The experiment is classed as in vivo, C57BL/6 mice. The protocol:
SSAO/VAP-1 is expressed on the endothelium of inflamed tissues/organs including brain and spinal cord. Its ability to support lymphocyte transendothelial migration may be an important systemic function of SSAO/VAP-1 in inflammatory diseases such as multiple sclerosis and Alzheimer's disease. An analysis of the use of SSAO inhibitors to treat inflammatory disease of the central nervous system (CNS) was performed through the use of an experimental autoimmune encephalomyelitis model (EAE) in C57BL/6 mice. EAE in rodents is a well-characterized and reproducible animal model of multiple sclerosis in human (Benson J. M. et al. (2000) J. Clin. Invest. 106:1031). Multiple sclerosis is a chronic immune-mediated disease of the CNS characterized by patchy perivenular inflammatory infiltrates in areas of demyelination and axonal loss. As an animal model, EAE can be induced in mice by immunization with encephalitogenic myelin antigens in the presence of adjuvant. […]
To examine the role of SSAO/VAP-1 as a major regulator of the lymphocyte recruitment to the CNS, compound II-1-E, an SSAO inhibitor, was evaluated in an EAE model.
Twenty female C57BL/6 mice were immunized subcutaneously (s.c). with myelin oligodendrocyte glycoprotein 35-55 (MOG peptide 35-55) in Complete Freund Adjuvant (CFA) on day 0, followed by i.p. injections of 500 ng pertussis toxin (one pertussis toxin injection on day 0, a second pertussis toxin injection on day 2). Groups of 10 mice received either compound II-1-E 40 mg/kg/dose, once daily i.p. for 30 consecutive days), or vehicle control (once/day for 30 consecutive days) all starting from one day after the immunization and all administered i.p. The animals were monitored for body weight, signs of paralysis and death according to a 0-5 scale of scoring system as follows: 1=limp tail or waddling gait with tail tonicity; 2=waddling gait with limp tail (ataxia); 2.5=ataxia with partial limb paralysis; 3=full paralysis of one limb; 3.5=full paralysis of one limb with partial paralysis of second limb; 4=full paralysis of two limbs; 4.5=moribund; 5=death. […]

T9 sequence (P20309 whole entry): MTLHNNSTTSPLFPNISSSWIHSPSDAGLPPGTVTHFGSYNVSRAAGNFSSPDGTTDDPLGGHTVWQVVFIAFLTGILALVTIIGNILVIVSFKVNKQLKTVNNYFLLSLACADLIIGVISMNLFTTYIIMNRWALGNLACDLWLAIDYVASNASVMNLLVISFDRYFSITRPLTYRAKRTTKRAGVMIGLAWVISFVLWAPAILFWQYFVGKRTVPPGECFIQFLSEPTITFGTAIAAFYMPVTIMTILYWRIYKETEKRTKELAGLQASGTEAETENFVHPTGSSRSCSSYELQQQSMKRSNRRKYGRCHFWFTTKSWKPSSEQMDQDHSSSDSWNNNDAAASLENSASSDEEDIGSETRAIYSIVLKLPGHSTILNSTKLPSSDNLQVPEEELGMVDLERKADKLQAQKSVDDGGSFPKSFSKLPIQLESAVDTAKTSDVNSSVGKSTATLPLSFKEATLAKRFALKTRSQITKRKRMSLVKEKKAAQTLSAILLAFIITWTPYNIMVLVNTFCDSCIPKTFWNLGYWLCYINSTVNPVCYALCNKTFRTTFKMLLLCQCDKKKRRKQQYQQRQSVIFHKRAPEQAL
T1 sequence (P35462 whole entry): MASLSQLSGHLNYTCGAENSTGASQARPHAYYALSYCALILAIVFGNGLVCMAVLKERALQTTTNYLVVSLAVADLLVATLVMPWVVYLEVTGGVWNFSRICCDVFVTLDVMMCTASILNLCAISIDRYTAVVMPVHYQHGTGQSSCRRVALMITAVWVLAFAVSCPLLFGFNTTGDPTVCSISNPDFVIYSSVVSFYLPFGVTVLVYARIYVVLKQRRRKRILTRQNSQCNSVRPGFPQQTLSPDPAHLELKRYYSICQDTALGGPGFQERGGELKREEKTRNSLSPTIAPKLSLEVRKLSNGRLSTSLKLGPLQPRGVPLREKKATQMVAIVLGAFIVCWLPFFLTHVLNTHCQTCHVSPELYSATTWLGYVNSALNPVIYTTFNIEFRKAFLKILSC
T4 sequence (P30989 whole entry): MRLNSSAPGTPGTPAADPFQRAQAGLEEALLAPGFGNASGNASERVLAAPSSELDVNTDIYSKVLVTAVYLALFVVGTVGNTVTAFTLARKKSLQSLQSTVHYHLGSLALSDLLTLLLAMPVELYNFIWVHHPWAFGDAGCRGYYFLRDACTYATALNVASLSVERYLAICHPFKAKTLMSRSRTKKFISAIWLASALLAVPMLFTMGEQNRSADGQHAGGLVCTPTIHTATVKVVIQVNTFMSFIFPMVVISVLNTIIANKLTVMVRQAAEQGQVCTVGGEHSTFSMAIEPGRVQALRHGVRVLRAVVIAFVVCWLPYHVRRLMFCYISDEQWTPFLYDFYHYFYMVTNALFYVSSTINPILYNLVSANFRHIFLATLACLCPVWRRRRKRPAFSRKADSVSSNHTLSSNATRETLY
T8 sequence (P30411 whole entry): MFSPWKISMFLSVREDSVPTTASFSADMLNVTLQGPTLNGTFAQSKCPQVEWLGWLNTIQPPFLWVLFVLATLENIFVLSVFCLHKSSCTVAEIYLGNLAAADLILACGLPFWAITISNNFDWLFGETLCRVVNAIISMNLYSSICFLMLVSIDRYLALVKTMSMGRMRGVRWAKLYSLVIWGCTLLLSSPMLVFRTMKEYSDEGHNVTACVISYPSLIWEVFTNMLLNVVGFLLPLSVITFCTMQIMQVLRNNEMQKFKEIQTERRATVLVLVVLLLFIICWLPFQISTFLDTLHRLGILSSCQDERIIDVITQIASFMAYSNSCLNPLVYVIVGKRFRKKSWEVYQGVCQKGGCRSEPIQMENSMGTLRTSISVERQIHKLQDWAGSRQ
T2 sequence (P32246 whole entry): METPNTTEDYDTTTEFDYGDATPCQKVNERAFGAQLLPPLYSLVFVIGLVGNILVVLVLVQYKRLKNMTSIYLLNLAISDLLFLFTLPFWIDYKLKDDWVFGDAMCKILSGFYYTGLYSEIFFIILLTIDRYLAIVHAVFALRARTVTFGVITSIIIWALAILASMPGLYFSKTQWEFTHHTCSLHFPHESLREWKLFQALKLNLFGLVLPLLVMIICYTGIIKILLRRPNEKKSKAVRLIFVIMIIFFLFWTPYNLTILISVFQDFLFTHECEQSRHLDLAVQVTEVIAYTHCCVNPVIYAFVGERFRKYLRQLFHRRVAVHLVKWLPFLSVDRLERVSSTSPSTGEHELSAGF
T7 sequence (P08173 whole entry): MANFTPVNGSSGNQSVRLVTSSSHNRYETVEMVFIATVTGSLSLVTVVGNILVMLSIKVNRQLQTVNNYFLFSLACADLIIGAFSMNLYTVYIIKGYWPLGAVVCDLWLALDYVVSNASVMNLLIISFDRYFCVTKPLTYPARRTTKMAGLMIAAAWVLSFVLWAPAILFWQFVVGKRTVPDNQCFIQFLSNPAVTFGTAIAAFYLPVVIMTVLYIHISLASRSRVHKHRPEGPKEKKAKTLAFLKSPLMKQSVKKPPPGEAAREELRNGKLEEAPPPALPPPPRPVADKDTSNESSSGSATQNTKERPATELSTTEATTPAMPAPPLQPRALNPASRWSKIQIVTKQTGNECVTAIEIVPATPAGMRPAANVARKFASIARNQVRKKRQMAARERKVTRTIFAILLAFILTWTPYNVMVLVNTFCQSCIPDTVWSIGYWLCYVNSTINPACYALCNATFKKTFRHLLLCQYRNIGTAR
T5 sequence (P11229 whole entry): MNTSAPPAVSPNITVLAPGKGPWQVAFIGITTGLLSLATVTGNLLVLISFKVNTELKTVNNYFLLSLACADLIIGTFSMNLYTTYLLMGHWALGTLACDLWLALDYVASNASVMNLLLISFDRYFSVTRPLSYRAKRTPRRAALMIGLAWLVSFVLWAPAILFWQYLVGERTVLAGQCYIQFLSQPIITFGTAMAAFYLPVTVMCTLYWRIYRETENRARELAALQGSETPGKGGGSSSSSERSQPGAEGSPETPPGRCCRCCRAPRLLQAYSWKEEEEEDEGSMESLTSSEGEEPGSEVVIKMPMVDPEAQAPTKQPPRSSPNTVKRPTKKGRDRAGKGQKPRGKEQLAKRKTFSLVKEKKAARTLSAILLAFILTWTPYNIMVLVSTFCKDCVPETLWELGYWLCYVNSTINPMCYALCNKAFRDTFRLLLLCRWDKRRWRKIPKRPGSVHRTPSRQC
T6 sequence (P47898 whole entry): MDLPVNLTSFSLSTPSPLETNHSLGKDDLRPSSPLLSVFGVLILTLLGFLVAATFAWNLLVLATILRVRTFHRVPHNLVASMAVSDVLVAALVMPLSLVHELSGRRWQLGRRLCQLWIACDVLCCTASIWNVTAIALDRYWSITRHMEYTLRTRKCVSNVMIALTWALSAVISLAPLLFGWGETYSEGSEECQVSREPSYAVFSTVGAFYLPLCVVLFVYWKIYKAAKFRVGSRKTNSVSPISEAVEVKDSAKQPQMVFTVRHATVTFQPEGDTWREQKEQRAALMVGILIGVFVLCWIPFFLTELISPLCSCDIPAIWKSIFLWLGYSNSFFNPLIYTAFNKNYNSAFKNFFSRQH
T3 sequence (P32245 whole entry): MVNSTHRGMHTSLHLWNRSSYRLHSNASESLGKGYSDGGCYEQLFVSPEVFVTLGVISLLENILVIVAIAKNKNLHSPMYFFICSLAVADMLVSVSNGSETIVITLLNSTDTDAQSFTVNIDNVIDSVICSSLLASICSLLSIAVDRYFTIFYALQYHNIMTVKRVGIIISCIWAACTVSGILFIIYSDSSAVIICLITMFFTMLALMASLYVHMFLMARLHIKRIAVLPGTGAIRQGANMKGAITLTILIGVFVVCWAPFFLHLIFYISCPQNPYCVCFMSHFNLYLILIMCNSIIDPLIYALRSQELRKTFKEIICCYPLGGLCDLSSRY

Turning to `COc1ccc(C/C(=C/F)CN)cc1.Cl` [Compound I-1-Z, (Z)-3-Fluoro-2-(4-methoxybenzyl)-allylamine hydrochloride], the inhibition at 10 µM on D3 (h) is -2%; at CCR1 (h), 3%; on MC4 (h), 8%; on NT1 (h) (NTS1), -1%; on M1 (h) it was 28%; at 5-HT5A (h), -3%. Further, the figures for the inhibition at 10 µM at M4 (h), at B2 (h) and at M3 (h) were 22%, 1% and 16%, respectively. For the same molecule, the “Ligand binding to the listed receptors” value in experiment [1] was “not affected”. Further, in experiment [2], the “Mean Value, percent inhibition of control specific binding: Ca^2+ channel (L, verapamil site) (phenylalkylamines)” value worked out at 14%.

Take `NC/C(F)=C\Cc1cc(F)cc(C(F)(F)F)c1` [II-1-E, (E)-2-Fluoro-4-(3-fluoro-5-trifluoromethylphenyl)-but-2-enylamine]: in experiment [3], the “day until which similar clinical scores between the two groups was not reached” value amounted to 38 days and the “mean clinical score of the treated group from day 14 onward” value is “well below that in the control group”. Besides, the “day at which disease reached 100% incidence” value in experiment [3] (control group day 13) stood at 24 days.

One may read the inhibition as the relative decrease from the control value, in per cent.
